In ChEMBL document CHEMBL1201862, “PubChem BioAssay data set” (2004):
Calls of active or inactive are those of the source. For most assays here, no stated cut-off is given here; in the data, actives have a measured AC50 and inactives only a lower limit.

Legend:
[1] = tested on: HEK293; assay: EBV LMP1 TES2 canonical NF-kB signalling blockers – cell-based, HEK293, luciferase, cherry-pick, dose response (AID 588343); assay type: functional; settings: Homo sapiens
[2] = loss of viability in HepG2 cells – cell-based, CellTiter-Glo, cherry-picked, cytotoxicity control for Shn3 inhibitor project, dose response (AID 624134); assay type: functional
[3] = EF1alpha-driven Renilla reporter with control 3'UTR suppression – Clone20-Shn3RL cells, dual-Glo, cherry-pick, set 2, counter-screen for Shn3 3'UTR targeting project, dose response (AID 720724); assay type: functional, cell-based; settings: Dual-Go Shn3RL
[4] = non-specific 3'UTR reporter inhibition in Clone20-Shn3RL – cell-based, Renilla luciferase, cherry-picked, counter-screen for Shn3 inhibitor project, dose response (AID 624133); assay type: functional
[5] = Shn3 3'UTR reporter signal decrease – cell-based, Clone20 osteoblasts, firefly luciferase, cherry-pick, set 2, Schnurri-3 inhibitor project, dose response (AID 720490); assay type: functional;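 further: actives lower the luminescence signal as inhibitors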
[6] = target: T1, Interleukin-8 (Homo sapiens, UniProt P10145); assay: Dose Response confirmation of uHTS small molecule hits for cystic fibrosis induced NFkb Inhibitors in a TNFa-induced IL8 counterscreen.; assay type: functional; settings: read-out: IC50_Mean
T1 sequence (P10145 whole entry): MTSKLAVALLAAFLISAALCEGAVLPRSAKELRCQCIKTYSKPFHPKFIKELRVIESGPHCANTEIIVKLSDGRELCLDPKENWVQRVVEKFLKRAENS

[7] = target: T1, Interleukin-8; assay: Dose Response confirmation of uHTS small molecule hits for cystic fibrosis induced NFkb Inhibitors in a PAF-induced IL8 counterscreen.; assay type: functional; settings: read-out: IC50_Mean
[8] = reduction of Shn3 3'UTR-driven luciferase in osteoblasts – cell-based, Clone20 osteoblasts, firefly luciferase, cherry-picked, dose response (AID 624132); assay type: functional;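 further: firefly luciferase luminescence from reporter carrying the Shn3 3'UTR in osteoblasts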
[9] = viability loss in HepG2 liver cells – cell-based, ATP luminescence, cherry-pick, set 6, cytotoxicity control, dose response (AID 1053125); assay type: functional
[10] = cells; settings: HEK293
[11] = target: T2, DNA repair protein RAD52 homolog (Homo sapiens, UniProt P43351); assay type: functional, biochemical
T2 sequence (P43351 whole entry): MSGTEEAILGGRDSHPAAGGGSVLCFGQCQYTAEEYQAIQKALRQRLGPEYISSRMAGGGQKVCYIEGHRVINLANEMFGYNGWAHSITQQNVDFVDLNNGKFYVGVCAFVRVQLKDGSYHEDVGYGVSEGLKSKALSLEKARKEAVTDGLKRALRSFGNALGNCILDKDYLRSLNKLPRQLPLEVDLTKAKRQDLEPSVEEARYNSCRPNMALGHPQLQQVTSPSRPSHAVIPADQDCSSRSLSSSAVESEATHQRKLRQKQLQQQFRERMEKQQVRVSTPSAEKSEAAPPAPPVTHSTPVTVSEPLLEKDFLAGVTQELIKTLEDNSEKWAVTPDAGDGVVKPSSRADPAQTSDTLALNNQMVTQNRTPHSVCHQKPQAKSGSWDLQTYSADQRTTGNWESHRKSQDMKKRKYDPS

Cc1ccccc1C(=O)N1CCN(c2ccc(NC(=O)CSc3ccc(Cl)cc3)cc2)CC1
AC50 [1]: 0.378 µM (active)
AC50 [2]: 44.1 µM (active)
AC50 [3]: 38.8 µM (active)
AC50 [4]: 25.2 µM (active)
AC50 [5]: 6.91 µM (active)
IC50 [6]: 39.9 µM (inactive)
IC50 [7]: 1.6 µM (active)
AC50 [8]: 4.23 µM (active)

Cc1cccn2c(=O)c3cc(C(=O)NC(C)c4ccccc4)c(=N)n(CCCn4ccnc4)c3nc12 (stereo unspecified)
AC50 [9]: > 52 µM (inactive)
AC50 [10]: > 52 µM (inactive)
AC50 [11]: 4.29 µM (active)
